Entries after “also recorded” stand apart in the source; their conditions may differ. Blank lines part the entries; values can stand above or below the molecule they belong to.
Columns and labels:
NTR1 [1] = target: T1, NTR1 (Homo sapiens, UniProt P30989); assay: NTR1 Ca2+ Flux assay; format: cell-based
NTR1 [2] = target: T1, NTR1; assay: NTR1 HCS primary assay; format: cell-based; conditions: for loss in potency compared to 32: NTR1 HCS EC50 relative to compound 32
[3] = tested on: GPR55, APJ, k-opiod, CCR6, and CXCR6; assay: Functional high content or β-arrestin based GPCR screens; format: cell-based; conditions: result in words
[4] = tested on: adrenergic receptors (α1a, α1B, α1D, α2A); assay: Panlabs/Ricerca lead profiling panel; format: binding; conditions: at 10 μM, range across α1a
[5] = tested on: Fa2N-4 Immortalized Human Hepatocytes; assay: Toxicity towards hepatocytes; format: cell-based; conditions: LC50 towards human hepatocytes versus NTR1 potency
[6] = NTR1 HCS EC50 relative to compound 5

T1 sequence (P30989 whole entry): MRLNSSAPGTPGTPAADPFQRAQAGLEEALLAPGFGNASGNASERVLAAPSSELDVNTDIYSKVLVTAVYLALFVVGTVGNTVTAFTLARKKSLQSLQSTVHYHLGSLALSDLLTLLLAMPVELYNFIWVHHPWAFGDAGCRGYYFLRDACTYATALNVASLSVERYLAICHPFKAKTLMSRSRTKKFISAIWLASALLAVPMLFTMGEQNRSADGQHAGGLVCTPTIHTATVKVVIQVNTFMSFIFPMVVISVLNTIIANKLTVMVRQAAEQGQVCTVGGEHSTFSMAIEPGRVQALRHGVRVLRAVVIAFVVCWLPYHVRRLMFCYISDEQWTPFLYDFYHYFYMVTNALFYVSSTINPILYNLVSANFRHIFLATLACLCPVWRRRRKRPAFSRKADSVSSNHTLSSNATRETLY

Compound: COc1cccc(OC)c1-c1cc(C(=O)N[C@@H](CC(C)C)C(=O)O)nn1-c1ccnc2cc(Cl)ccc12 [Compound 2, reference compound]
EC50 (NTR1 [1]; NTR1 Ca2+ flux assay): < 156 nM

Compound: CCOc1cc2c(N3CCN(c4ccccc4[N+](=O)[O-])CC3)nc(-c3ccccc3)nc2cc1OC [Compound 19]
loss of potency compared to 5 (NTR1 [2]; [6]): > 6 fold

Compound: COc1cc2nc(C3CC3)nc(N3CCN(c4ccccc4OC)CC3)c2cc1OC [Compound 32, 2-cyclopropyl-6,7-dimethoxy-4-(4-(2-methoxyphenyl)-piperazin-1-yl)quinazoline]
improvement in activity over 5 (NTR1 [2]; [6]): 3 fold
response in Ca2+ mobilization / flux assay (NTR1 [1]; result in words): no significant response; also recorded: no significant activity
cross reactivity [3]: no cross reactivity
binding [4]: 63-100%
window for toxicity [5]: > 15 fold

Compound: COc1ccccc1N1CCN(c2nc(C3CCC3)nc3ccccc23)CC1 [Compound 39]
loss of potency compared to 5 (NTR1 [2]; [6]): 4-6 fold

More lines, now with the values ahead:

loss of potency compared to 5 (NTR1 [2]; [6]): > 6 fold
Compound: COc1cc2nc(C3CCC3)nc(N3CCN(c4ccccn4)CC3)c2cc1OC [Compound 18]

loss of potency compared to 5 (NTR1 [2]; [6]): 4-6 fold
Compound: COc1ccc2c(N3CCN(c4ccccc4OC)CC3)nc(C3CCC3)nc2c1 [Compound 38]

loss of potency compared to 5 (NTR1 [2]; [6]): over 6 fold
Compound: COc1ccccc1N1CCN(c2nc(C3CCC3)nc3cc4c(cc23)OCO4)CC1 [Compound 40]

loss in potency compared to 32 (NTR1 [2]): 3-10 fold
Compound: CCOc1ccccc1N1CCN(c2nc(C3CC3)nc3cc(OC)c(OC)cc23)CC1 [Compound 42]

loss in potency compared to 32 (NTR1 [2]): 3-10 fold
Compound: COc1cc2nc(C3CC3)nc(N3CCN(c4ccccc4Cl)CC3)c2cc1OC [Compound 43]

— publication PMC3940307 (ACS medicinal chemistry letters, 2013)
